Test results as given in patent US4318916A, “Antibiotic PS-5 and derivatives having β-lactamase inhibitory activity and production thereof” (Sanraku-Ocean Co., Ltd., priority 1977, dated 1982).
Read-outs that look alike come from different tables or passages of the source.

How the values were obtained:
Proteus vulgaris P-5 [1] = test: Filter paper strip synergism test; type: cell-based; conditions: Proteus vulgaris P-5 (beta-lactamase producer); crossed filter paper strips, 18 hours at 35° C.
Description: On an assay plate of nutrient agar seeded by a beta-lactam-resistant strain of Proteus vulgaris P-5 (beta-lactamase producer), two filter paper strips containing penicillin G or cephaloridine and two strips containing antibiotic PS-5 were applied to form a square where two strips of the […] antibiotic were contacted at one corner. The antimicrobial activity was read after incubation for 18 hours at 35° C. When suitable concentrations of penicillin G or cephaloridine and antibiotic PS-5 were chosen, the inhibition area was observed only at the corners where both antibiotic PS-5 and penicillin G or cephaloridine were present, but not at the corners where antibiotic PS-5, penicillin G or cephaloridine was solely present. […] That is, when two kinds of compounds were combined at concentrations that were low enough not to give an inhibition zone with a component alone, the large inhibition thus appearing with the combination was due to synergism.

[2] = pH and heat stability of antibiotic PS-5 in aqueous solution; type: physicochemical; conditions: for remaining at 0.25 h: water, pH 9, at least 15 min of heating at 60° C., aqueous solution, around neutral to weakly alkaline pH below pH 9
Citrobacter freundii E-9 = test: Potentiation disc assay of trityl ester (Table 14); type: cell-based; conditions: for Halo of inhibition Cephaloridine added: 50 μg/ml cephaloridine in base agar
Description: (§1) (A) Assay Petri dishes (9 cm in diameter) containing resistant microorganisms were prepared by overlaying 10 ml of the molten nutrient agar seeded with beta-lactam-resistant (beta-lactamase-producing) microorganisms, on the solid base layer of nutrient agar (pH 7.0) (15 ml) containing 50 μg/ml of penicillin G or cephaloridine. As described before, the antibiotic solutions to be tested were applied in a 25 μl amount on an 8 mm pulp disc and placed on the said assay dishes. After incubation for 18 hours at 35° C., the inhibition halos were measured and compared with the results on the corresponding assay dished containing neither penicillin G nor cephaloridine. From the data in Table 14, it is very clear that the combination of the tritylation product of antibiotic PS-5 at a concentration below the lower limit of disc assay, with penicillin G or cephaloridine, at a concentration below said limit, produced a significant halo of inhibition. This fact clearly proves the potentiation of the antibiotic activity of penicillin G or cephaloridine with the tritylation product of antibiotic PS-5.

Proteus sp. P-22 = test: Potentiation disc assay of trityl ester (Table 14); type: cell-based; conditions: for Halo of inhibition Cephaloridine added: 50 μg/ml cephaloridine in base agar
Description: as §1

Proteus vulgaris P-5 [3] = test: Potentiation disc assay of trityl ester (Table 14); type: cell-based; conditions: for Halo of inhibition Cephaloridine added: 50 μg/ml cephaloridine in base agar
Description: as §1

[4] = target: Beta-lactamase from Citrobacter freundii E-9 (Citrobacter freundii, UniProt P05193); test: Beta-lactamase inhibition, hydrolysis of cephaloridine (I50 CER); type: biochemical; conditions: Citrobacter freundii E-9 beta-lactamase; cephaloridine substrate; 15 minutes preincubation at 30° C.
Description: The I50^CER value of hydrolysis of cephaloridine by beta-lactamasefor 10 minutes (from one minute to ten minutes after the incubation is started). The rate of hydrolysis of cephaloridine is measured by the decrease of optical density at […]. For routine inhibition assays, beta-lactamase of Citrobacter freundii E-9 and Proteus vulgaris P-5 were employed after purification by affinity chromatography with cephalexin-Sepharose 4B.
Buffer: 0.1 M phosphate buffer (Na-K phosphate) (pH 6.8)
Substrate: 0.05 micromole/ml in phosphate buffer
Beta-lactamase: The enzyme was diluted enough to give a fall of ca. 0.1 optical density unit per 10 minutes at 255 mμ in the absence of an inhibitor. (Apparatus: Hitachi Spectrophotometer UV-VIS 139, Hitachi, Ltd.).
(This can hold one control cuvette and three sample cuvettes. Four 1 cm quarz cuvettes (3 ml in volume) were employed. The temperature was maintained at 30° C. during the reaction). […]
After pre-incubation, the substrate solution (pre-warmed at 30° C.; 3.0 ml) was added and quickly mixed to start the reaction. […] The value of I50^CER (μg/ml) was determined by diluting the inhibitor untill the dilution gave 50% of the rate of hydrolysis of cephaloridine recorded in the no-inhibitor control for 10 minutes (from 1 minute to 11 minutes after the substrate was added).

[5] = tested on: Comamonas terrigena B-996; test: Disc bio-assay of antimicrobial activity, cephaloridine equivalent units; type: cell-based; conditions: Comamonas-cephaloridine units per mg of the final purified preparation
Description: The overnight culture of Comamonas terrigena B-996 on a nutrient agar slant was suspended in nutrient broth so as to give an optical cell density of 0.040 at 610 nm.
The seed suspension was added in a 1% amount to a molten agar medium containing 0.8% Kyokuto Nutrient Broth Powder (Kyokuto Pharmaceutical Industries Co.) and 1.0% Bacto-Agar (Difco Laboratories). Seven milliliters of the seeded molten agar medium were distributed in a Petri dish (9 cm in diameter) and solidified). This is defined as a Comamonas assay plate.
An 8 mm pulp disc was usually soaked with a sample solution to be assayed, left on a clean sheet of filter paper for a sufficient time to remove the excess solution and then transferred onto an assay plate. After incubation at 35° C. for 20 hours, the diameter of the observed inhibition zone was measured and compared with standard solutions of cephaloridine. The antimicrobial activity of the antibiotic PS-5 and related compounds is expressed as cephaloridine equivalent units/ml.
As well known to those skilled in the art, the assay standard curve varies to some extent, depending on the species of the test microorganisms. […]

Beta-lactamase from Citrobacter freundii E-9, sequence (P05193 21-381): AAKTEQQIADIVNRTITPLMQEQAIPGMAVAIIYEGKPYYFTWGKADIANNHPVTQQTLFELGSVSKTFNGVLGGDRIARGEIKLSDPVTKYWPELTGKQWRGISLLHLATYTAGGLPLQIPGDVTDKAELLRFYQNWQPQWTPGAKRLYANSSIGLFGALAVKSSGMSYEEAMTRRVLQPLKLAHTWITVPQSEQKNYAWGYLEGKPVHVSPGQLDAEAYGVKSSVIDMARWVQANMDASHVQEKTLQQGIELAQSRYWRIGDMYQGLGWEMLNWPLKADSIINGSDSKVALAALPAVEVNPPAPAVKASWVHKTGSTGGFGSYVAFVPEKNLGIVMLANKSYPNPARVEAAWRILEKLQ

Row | Structure (SMILES) | Synergism with penicillin G or cephaloridine (Proteus vulgaris P-5 [1]) | remaining at 5 min ([2]; pH 3, pH 3.0 for 5 minutes at -17° C., read-out: Initial antibiotic activity still detected) | remaining at 0.25 h ([2]; read-out: Antibiotic activity remaining) | remaining at 0.25 h ([2]; usual value, read-out: Antibiotic activity remaining, usually) | zone of inhibition at 50 µg/mL (Citrobacter freundii E-9; E9, 18 h, Trityl PS-5 50 μg/ml, read-out: Halo of inhibition Control) | zone of inhibition at 100 µg/mL (Citrobacter freundii E-9; E9, 18 h, Trityl PS-5 100 μg/ml, read-out: Halo of inhibition Control) | Halo of inhibition Cephaloridine added (Citrobacter freundii E-9; Trityl PS-5 50 μg/ml) | Halo of inhibition Cephaloridine added (Citrobacter freundii E-9; Trityl PS-5 100 μg/ml) | zone of inhibition at 50 µg/mL (Proteus sp. P-22; 18 h, Trityl PS-5 50 μg/ml, read-out: Halo of inhibition Control) | zone of inhibition at 100 µg/mL (Proteus sp. P-22; 18 h, Trityl PS-5 100 μg/ml, read-out: Halo of inhibition Control) | Halo of inhibition Cephaloridine added (Proteus sp. P-22; Trityl PS-5 50 μg/ml) | Halo of inhibition Cephaloridine added (Proteus sp. P-22; Trityl PS-5 100 μg/ml) | zone of inhibition at 42 µg/mL (Proteus vulgaris P-5 [3]; P5, 18 h, Trityl PS-5 42 μg/ml, penicillin G series, read-out: Halo of inhibition Control) | zone of inhibition at 50 µg/mL (Proteus vulgaris P-5 [3]; P5, 18 h, Trityl PS-5 50 μg/ml, cephaloridine series, read-out: Halo of inhibition Control) | zone of inhibition at 100 µg/mL (Proteus vulgaris P-5 [3]; P5, 18 h, Trityl PS-5 100 μg/ml, cephaloridine series, read-out: Halo of inhibition Control) | Halo of inhibition Penicillin G added (Proteus vulgaris P-5 [3]; Trityl PS-5 42 μg/ml, 50 μg/ml penicillin G in base agar) | Halo of inhibition Cephaloridine added (Proteus vulgaris P-5 [3]; Trityl PS-5 50 μg/ml) | Halo of inhibition Cephaloridine added (Proteus vulgaris P-5 [3]; Trityl PS-5 100 μg/ml) | IC50 [4] | Specific activity [5]
1 | CCC1C(=O)N2C(C(=O)O)=C(SCCNC(C)=O)CC12 (single isomer, unassigned) [Antibiotic PS-5] | synergism between the antibiotic PS-5 and penicillin G or cephaloridine | ≥ 30% | ≥ 50% | > 70% |  |  |  |  |  |  |  |  |  |  |  |  |  |  |  | 
2 | CCC1C(=O)N2C(C(=O)OC(c3ccccc3)(c3ccccc3)c3ccccc3)=C(SCCNC(C)=O)CC12 (single isomer, unassigned) [Trityl PS-5] |  |  |  |  | 13 mm | 16 mm | 15.5 mm | 18.0 mm | 0 mm | 0 mm | 11.5 mm | 13.5 mm | 0 mm | 0 mm | 11 mm | 27.0 mm | 15.0 mm | 18.0 mm | 1480 nM | 10,800 CCU/mg
